Data on 16 molecules can be found in PMC5050167 (Bioorganic & medicinal chemistry letters, 2016).

pEC50, pIC50: −log10 of the molar value.

The subject of one series is RMS13 and MCF7 cells. The series is described as follows: Growth inhibition of the two cancer lines. It counts as cell-based. The conditions noted are these: Homo sapiens, read-out: GI50 across the two cancer lines.
Series [1] deals with T1, T antigen (Simian virus 40, UniProt P03070). The series is described as follows: ATPase activity of purified T antigen. It counts as biochemical, polyomavirus. The conditions noted are these: for Fold change in ATPase activity of T antigen: compound 10 μM, purified T antigen, normalized to DMSO, mean of 3 experiments.
T1 sequence (P03070 whole entry): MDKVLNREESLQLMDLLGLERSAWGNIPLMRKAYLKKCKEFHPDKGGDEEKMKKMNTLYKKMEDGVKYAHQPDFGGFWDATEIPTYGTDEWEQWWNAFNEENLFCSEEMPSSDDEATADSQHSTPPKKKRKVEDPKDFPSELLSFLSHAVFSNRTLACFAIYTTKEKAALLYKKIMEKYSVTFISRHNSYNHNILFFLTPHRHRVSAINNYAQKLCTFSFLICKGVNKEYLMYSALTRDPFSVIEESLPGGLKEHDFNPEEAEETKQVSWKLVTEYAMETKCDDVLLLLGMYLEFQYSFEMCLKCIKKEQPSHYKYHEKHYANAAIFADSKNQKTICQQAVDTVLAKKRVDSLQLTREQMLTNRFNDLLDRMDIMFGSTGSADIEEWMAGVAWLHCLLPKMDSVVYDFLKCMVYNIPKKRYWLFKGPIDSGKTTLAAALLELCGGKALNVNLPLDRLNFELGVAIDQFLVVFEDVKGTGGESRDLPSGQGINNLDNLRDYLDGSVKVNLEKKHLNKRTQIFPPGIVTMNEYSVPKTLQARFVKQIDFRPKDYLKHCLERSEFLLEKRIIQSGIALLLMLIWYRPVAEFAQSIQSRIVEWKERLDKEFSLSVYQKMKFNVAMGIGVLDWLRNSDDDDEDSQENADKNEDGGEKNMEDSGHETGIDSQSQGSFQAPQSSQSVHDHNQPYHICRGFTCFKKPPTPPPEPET
In a further series the target is human Hsp70 (Homo sapiens, UniProt P0DMV8). The series is described as follows: Endogenous Hsp70 ATPase activity. It is filed as biochemical.
human Hsp70, sequence (P0DMV8 whole entry): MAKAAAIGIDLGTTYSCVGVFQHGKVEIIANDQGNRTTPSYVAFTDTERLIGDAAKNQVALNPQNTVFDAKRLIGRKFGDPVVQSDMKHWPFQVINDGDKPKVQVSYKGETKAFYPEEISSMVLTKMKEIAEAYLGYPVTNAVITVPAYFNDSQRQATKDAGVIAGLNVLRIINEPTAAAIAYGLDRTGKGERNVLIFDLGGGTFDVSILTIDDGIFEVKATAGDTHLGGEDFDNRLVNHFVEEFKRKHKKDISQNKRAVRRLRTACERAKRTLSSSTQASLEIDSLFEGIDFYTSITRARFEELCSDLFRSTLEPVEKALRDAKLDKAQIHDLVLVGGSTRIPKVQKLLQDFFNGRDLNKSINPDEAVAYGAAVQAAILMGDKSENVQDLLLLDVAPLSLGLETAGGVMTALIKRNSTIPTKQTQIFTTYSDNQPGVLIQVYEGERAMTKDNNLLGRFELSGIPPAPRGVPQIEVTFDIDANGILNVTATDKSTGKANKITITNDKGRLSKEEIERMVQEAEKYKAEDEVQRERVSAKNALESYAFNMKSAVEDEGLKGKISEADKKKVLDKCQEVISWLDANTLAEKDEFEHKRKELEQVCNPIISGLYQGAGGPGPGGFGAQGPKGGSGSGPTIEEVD
Series [2] addresses T1, T antigen. The conditions noted are these: cited from earlier work.
The target in another series is Hsp70 + Hdj2 (Homo sapiens, UniProt P0DMV8). As to the kind of experiment: Hsp40. It counts as biochemical. The following applies: carboxylic acid in place of tetrazole.
Hsp70 + Hdj2, sequence (P0DMV8 whole entry): as above
The next series relates to JC Virus. As to the kind of experiment: JC virus replication in COS7 cells. It is filed as cell-based. The conditions noted are these: comparison with cidofovir.
In series [3] the test system is human foreskin fibroblasts. As to the kind of experiment: Cytotoxicity in human foreskin fibroblasts. It counts as cell-based. The conditions noted are these: in words.

What is called GI50 is the concentration at which growth is held to half of that of the control. In the case of `CCCCCCN(C(=O)CCCCCN1C(=O)NC(c2ccc(-c3ccccc3)cc2)C(C(=O)OCc2ccccc2)=C1C)C(C(=O)NCCCC)c1ccc(OCC(=O)OC)c(C(=O)OC)c1` (centres unmarked) [MAL3-101], in the series on RMS13 and MCF7 cells, the GI50 lay within 6 to 13 µM.
`CC1=C(C(=O)OCc2ccccc2)C(c2ccc(-c3ccccc3)cc2)NC(=S)N1Cc1ccc(-c2nnn[nH]2)cc1` (centres unmarked) [AMT551-078]: the “Fold change in ATPase activity of T antigen” value (“Fold change in ATPase activity” below) at T antigen [1] was −5.5 fold.
With `CC1=C(C(=O)OCc2ccccc2)C(c2ccc(-c3ccccc3)cc2)N(Cc2ccc(-c3nnn[nH]3)cc2)C(=O)N1` (centres unmarked) [AMT628-003], the “Fold change in ATPase activity” value at T antigen [1] is −2.3 fold.
With `CC1=C(C(=O)OCc2ccccc2)C(c2ccc(-c3ccccc3)cc2)N(CCCCCC(=O)O)C(=S)N1` (centres unmarked) [AMT551-071], the “Fold change in ATPase activity” value at T antigen [1] is −1.6 fold.
Usually pIC50 stands for the negative decadic logarithm of the IC50, by convention in mol/L. A word on the pEC50: it is the EC50 on a negative log10 scale, so that one unit is a factor of ten. As for `CC1=C(C(=O)OCc2ccccc2)C(c2ccc(-c3ccccc3C)cc2)NC(=O)N1Cc1ccc(-c2nnn[nH]2)cc1` (centres unmarked) [SMAL], the “Effect on endogenous Hsp70 ATPase activity, in words” value on human Hsp70 is reported as “modestly inhibited”. For the same molecule, the pIC50 at T antigen [2] (read-out: IC50 T antigen ATPase activity) was 5.30. Moreover, the pEC50 at T antigen [2] (read-out: reported EC50 (T antigen ATPase)) is ~5.30. Moreover, the “Effect on T antigen ATPase activity, in words” value on T antigen [1] (final concentration 10 μM) is “significantly reduced the ATPase activity of T antigen”.
With `CC1=C(C(=O)OCc2ccccc2)C(c2ccc(-c3ccccc3)cc2)NC(=O)N1Cc1ccc(-c2nnn[nH]2)cc1` (centres unmarked) [ML282-56], on T antigen [1], the “Fold change in ATPase activity” value is recorded as −2.0 fold.
On to `CC1=C(C(=O)OCc2ccccc2)C(c2ccc(-c3ccccc3)cc2)NC(=S)N1CCCCCC(=O)O` (centres unmarked) [AMT551-090], for which, on Hsp70 + Hdj2, the “Effect on Hsp40-dependent activation of Hsp70, in words” value is listed as “either lacked inhibitory activity or modesty stimulated”. For the same molecule, the “Fold change in ATPase activity” value at T antigen [1] is on record as −1.5 fold.
With `CC1=C(C(=O)OCc2ccccc2)C(c2ccc(-c3ccccc3C)cc2)N(Cc2ccc(-c3nnn[nH]3)cc2)C(=S)N1` (centres unmarked) [AMT551-058], the “Fold change in ATPase activity” value on T antigen [1] is reported as −7.5 fold.
The same measure, in the same setting: under `CC1=C(C(=O)OCc2ccccc2)C(c2ccc(-c3ccccc3C)cc2)NC(=O)N1CCCCCc1nnn[nH]1` (centres unmarked) [LR340-006] stands −2.1 fold.
For the molecule `CC1=C(C(=O)OCc2ccccc2)C(c2ccc(-c3ccccc3)cc2)N(Cc2ccc(-c3nnn[nH]3)cc2)C(=S)N1` (centres unmarked) [AMT580-043], the “Inhibition of polyomavirus replication in cell culture, in words” value in the series with JC Virus is reported as “more potently than an existing drug, cidofovir”. Besides, on T antigen [1], the “Fold change in ATPase activity” value was −4.5 fold.
With `CC1=C(C(=O)OCc2ccccc2)C(c2ccc(-c3ccccc3)cc2)NC(=O)N1CCCCCC(=O)O` (centres unmarked) [MAL2-11B], the “Effect on Hsp40-dependent activation of Hsp70, in words” value on Hsp70 + Hdj2 was “either lacked inhibitory activity or modesty stimulated”. For the same molecule, the “Fold change in ATPase activity” value at T antigen [1] is −1.5 fold.
`Nc1ccn(C[C@@H](CO)OCP(=O)(O)O)c(=O)n1.O.O` [Cidofovir]: in series [3], the “Toxicity relative to the dihydropyrimidines” value was “significantly less toxic than the dihydropyrimidines”.
As to `CC1=C(C(=O)OCc2ccccc2)C(c2ccc(-c3ccccc3)cc2)NC(=S)N1CCCCCc1nnn[nH]1` (centres unmarked) [AMT580-027], the “Fold change in ATPase activity” value at T antigen [1] is recorded as −2.1 fold.
`CC1=C(C(=O)OCc2ccccc2)C(c2ccc(-c3ccccc3)cc2)NC(=O)N1CCCCCc1nnn[nH]1` (centres unmarked) [BQU015242]: the “Effect on endogenous Hsp70 ATPase activity, in words” value at human Hsp70 is reported as “modestly inhibited”. Moreover, on T antigen [1], the “Fold change in ATPase activity” value is reported as −1.4 fold.
With `CC1=C(C(=O)OCc2ccccc2)C(c2ccc(-c3ccccc3C)cc2)NC(=S)N1Cc1ccc(-c2nnn[nH]2)cc1` (centres unmarked) [AMT551-093], at T antigen [1], the “Fold change in ATPase activity” value is given as −7.7 fold.
Still for that read-out and setting: for `CC1=C(C(=O)OCc2ccccc2)C(c2ccc(-c3ccccc3C)cc2)NC(=S)N1CCCCCc1nnn[nH]1` (centres unmarked) [AMT580-033] the value was −4.7 fold.
